According to US10301308B2, “Azetidine derivatives for tau imaging” (Eli Lilly and Company, priority 2015, dated 2019):

How the values were obtained:
[1] = system: native tau aggregates vs native β-amyloid aggregates in human brain sections; experiment: Autoradiography selectivity towards tau versus β amyloid in AD human brain tissue; format: binding
From the text: Based on the anti-tau and anti-amyloid immunostaining results of brain sections, three groups of human brain sections are selected for autoradiography experiments to determine the native tau-binding selectivity of 3-(3-[18F]-fluoroazetidin-1-yl)-8-methylbenzo[4,5]imidazo[1,2-a]pyridine. Group A are tau-rich AD brain slices (labeled as Tau+Aβ+), Group B are tau-poor AD brain slices (marked as Tau-Aβ+), and Group C are Tau-Aβ− normal brain slices. […] The human AD brain sections in Group B are #33562, #32656, #33998, #35682, and #33563. The normal human brain sections in group C are #29092 and #32566. Tissue slices from the same donors are used to calculate selectivity for all three compounds for testing according to Assay Example 5. Autoradiography is performed for each of these three groups of brains on adjacent 10 μm sections with the amyloid tracer [18F]W372 to quantify the β-amyloid burden. [18F]W372 is a selective amyloid binding tracer discovered by Siemens and evaluated under IND 105173. Sections are covered with 0.5 ml of 3-(3-[18F]-fluoroazetidin-1-yl)-8-methylbenzo[4,5]imidazo[1,2-a]pyridine (in 2.5:2.5:95 DMSO:EtOH:1×PBS, about 20 μCi/slide) and incubated for 1.5 hrs. Then successive washing cycles (1 min PBS, 2 min 30% EtOH/PBS, 2 min 70% EtOH/PBS, 1 min PBS) are employed to remove any unbound tracer. The sections are air dried, placed on a phosphorimaging plate (Fuji IP plate), and exposed overnight. The IP plate is read using a GE Healthcare Life Sciences Typhoon FLA 7000 Phosphorimager. The signal intensity of the grey matter is measured using Fujifilm Multi Gauge software. After subtracting the background signal (signal in the cortex region of Group C), the signal of individual sections of Group A and B are normalized with corresponding signal from autoradiography of the respective adjacent sections with [18F]W372. The calculations are based on Group B brain sections #32656 and #33998, which have undetectable tau pathology by immunohistochemistry. The normalized signal for 3-(3-[18F]-fluoroazetidin-1-yl)-8-methylbenzo[4,5]imidazo[1,2-a]pyridine in Group B brain sections is the relative signal level of 3-(3-[18F]-fluoroazetidin-1-yl)-8-methylbenzo[4,5]imidazo[1,2-a]pyridine to [F-18]W372 resulting from binding to native β-amyloid aggregates. The binding level of 3-(3-[18F]-fluoroazetidin-1-yl)-8-methylbenzo[4,5]imidazo[1,2-a]pyridine to native tau-aggregates in Group A sections is estimated by subtracting the amount of the total signal attributable to binding to 3-amyloid (calculated by multiplying the total signal from [18F]W372 binding to β-amyloid in the adjacent section by the relative signal of 3-(3-[18F]-fluoroazetidin-1-yl)-8-methylbenzo[4,5]imidazo[1,2-a]pyridine to [18F]W372 determined from the Group B sections). The resulting difference is then divided by the signal attributable to binding to β-amyloid to estimate the selectivity of 3-(3-[18F]-fluoroazetidin-1-yl)-8-methylbenzo[4,5]imidazo[1,2-a]pyridine. […] The selectivity of 3-(3-[18F]-fluoroazetidin-1-yl)-8-methylbenzo[4,5]imidazo[1,2-a]pyridine binding to native tau aggregates vs. binding native β-amyloid aggregates is reflected by the ratio of Group A (Tau+Aβ+) signal to the signal of the brain sections #32656 and #33998.

[2] = system: normal human brain tissue; experiment: Autoradiography on normal versus AD human brain slices, less stringent or alcohol free washes; format: binding
From the text: In order to show the absence of non-tau binding, autoradiography scans are obtained from 3-(3-[18F]-fluoroazetidin-1-yl)-8-methylbenzo[4,5]imidazo[1,2-a]pyridine on normal human brain tissue. The experimental procedure is the same as provided in Example 5 except that only 20 uCi of 18F-ligand is applied to the tissue slices and the washing conditions are less stringent. […] The autoradiography is further carried out with no ethanol in the washing solutions.

Question: Which “selectivity ratio for Tau:Aβ” value ([1]; 5 Tau+Aβ+ and 2 Tau-Aβ+ brain specimens) does the source give for Cc1ccc2nc3cc(N4CC([18F])C4)ccn3c2c1 [Compound 8, 3-(3-[18F]-fluoroazetidin-1-yl)-8-methylbenzo[4,5]imidazo[1,2-a]pyridine] here?
Answer: approximately 26.6±4.5

Question: And the “autoradiography signal on grey matter (cortex region)” value ([1]; Group A (Tau+Aβ+) sections)?
Answer: Strong signal

Question: What about the “autoradiography signal on cortex regions” value ([1]; Group B (Tau-Aβ+) sections) of the same compound?
Answer: weak or no signal

Question: What about the autoradiography signal ([1]; Group C (Tau-Aβ−) normal brain sections) of the same compound?
Answer: No autoradiography signal

Question: What about the “grey matter to white matter (GM/WM) signal ratio” value ([1]; autoradiography, Tau+Aβ+ brain specimens) of the same compound?
Answer: approximately 17.3±1.7

Question: And the “selectivity of binding to native tau aggregates vs native β-amyloid aggregates” value ([1]; grey matter region of human AD brains)?
Answer: approximately 27 fold

Question: What about the “autoradiography signal on normal brain sections, grey vs white matter” value ([1]; normal brain sections) of the same compound?
Answer: weak and even

Question: What about the “blocking of signal in AD brain tissue” value ([2]; AD30121, frontal cortex) of the same compound?
Answer: can be blocked by non-radiolabelled compound or with the known tau PET tracer T807

Question: What about the “autoradiography signal in normal cortical or white matter tissue compared to [18F]T807” value ([2]; no ethanol in the washing solutions) of the same compound?
Answer: much lower autoradiography signal

Question: And the “radioactivity signal in normal tissue” value ([2]; washes PBS, 10% ethanol/PBS, 30% ethanol/PBS, PBS, vs AD brain tissue)?
Answer: considerably lower than in AD brain tissue
